# Assay results: patent US10501503B2, “Modified membrane permeability” (Cathay Biotech Inc., priority 2015, dated 2019)
# Experiments:
# [1] = system: H. alvei; assay: Cadaverine inhibits gram-negative bacteria: lysine-to-cadaverine conversion after pre-incubation in cadaverine; assay type: cell-based, Hafnia alvei; details: 3% cadaverine for 24 hours
# Experimental: We studied the affect of cadaverine on the gram-negative bacteria H. alvei. First, H. alvei was transformed with pCIB60 and grown for 24 hours in 50 mL LB medium with ampicillin (100 μg/mL) at 37° C. The following day, 50 mL of the seed culture was added to a 10 L jar fermenter containing […] of fermentation medium (20 g/L glucose, 30 g/L corn steep liquor, 10 g/L yeast extract, 5 g/L ammonium sulfate, 10 g/L MgSO4, 0.05 g/L FeSO4, 0.05 g/L MnSO4, 5 g/L CaCl2, 0.1 g/L ampicillin), and the fermentation proceeded for 18 hours. 10 g of fermentation broth was collected, centrifuged at 6000 rpm for 5 min at room temperature, and the biomass was recovered. 0.5 g of biomass was added to a 50 mM potassium phosphate buffer with either 0% or 3% cadaverine for 24 hours. After incubation, each sample was centrifuged at 6000 rpm for 5 min at room temperature, the biomass was recovered, and fresh potassium phosphate buffer with lysine-HCl and PLP to a final concentration of 200 g/L and 0.1 mM, respectively, was added. The initial pH of the reaction as adjusted to 5.0, and the reaction was allowed to proceed for 120 minutes at 37° C. […] The cadaverine concentration in each sample was quantified using NMR, and yield was calculated by dividing the molar amount of cadaverine produced by the molar amount of lysine added.
# [2] = system: E. coli; details: Qian et al., Biotechnology and Bioengineering 108:93-103, 2010; cited from earlier work
smiles,measurement,setting,value
NCCCCCN [cadaverine],Effect of cadaverine pre-incubation on the cells' ability to convert lysine to cadaverine,[1],significant decrease in conversion ability
same,Effect of cadaverine on growth of E. coli,[2],inhibits growth
